From the kinase profiling compilation of Christmann-Franck et al. (2016)

Tests used:
Experiment in all cases: radiometric filter-binding kinase assay
DDR2 (human) = DDR2 (human) (UniProt Q16832)
CHEK2 (human) = CHEK2 (human) (UniProt O96017)
[1] = system: OXSR1 (human), O95747 [T185E]
TSSK1B (human) = TSSK1B (human) (UniProt Q9BXA7)
TESK1 (human) = TESK1 (human) (UniProt Q15569)
WNK1 (human) = WNK1 (human) (UniProt Q9H4A3)
TLK1 (human) = TLK1 (human) (UniProt Q9UKI8)
TTBK1 (human) = TTBK1 (human) (UniProt Q5TCY1)
IRAK1 (human) = IRAK1 (human) (UniProt P51617)
TEK (human) = TEK (human) (UniProt Q02763)
MARK3 (human) = MARK3 (human) (UniProt P27448)
Chain of MARK3 (human) (P27448 whole entry, looked up): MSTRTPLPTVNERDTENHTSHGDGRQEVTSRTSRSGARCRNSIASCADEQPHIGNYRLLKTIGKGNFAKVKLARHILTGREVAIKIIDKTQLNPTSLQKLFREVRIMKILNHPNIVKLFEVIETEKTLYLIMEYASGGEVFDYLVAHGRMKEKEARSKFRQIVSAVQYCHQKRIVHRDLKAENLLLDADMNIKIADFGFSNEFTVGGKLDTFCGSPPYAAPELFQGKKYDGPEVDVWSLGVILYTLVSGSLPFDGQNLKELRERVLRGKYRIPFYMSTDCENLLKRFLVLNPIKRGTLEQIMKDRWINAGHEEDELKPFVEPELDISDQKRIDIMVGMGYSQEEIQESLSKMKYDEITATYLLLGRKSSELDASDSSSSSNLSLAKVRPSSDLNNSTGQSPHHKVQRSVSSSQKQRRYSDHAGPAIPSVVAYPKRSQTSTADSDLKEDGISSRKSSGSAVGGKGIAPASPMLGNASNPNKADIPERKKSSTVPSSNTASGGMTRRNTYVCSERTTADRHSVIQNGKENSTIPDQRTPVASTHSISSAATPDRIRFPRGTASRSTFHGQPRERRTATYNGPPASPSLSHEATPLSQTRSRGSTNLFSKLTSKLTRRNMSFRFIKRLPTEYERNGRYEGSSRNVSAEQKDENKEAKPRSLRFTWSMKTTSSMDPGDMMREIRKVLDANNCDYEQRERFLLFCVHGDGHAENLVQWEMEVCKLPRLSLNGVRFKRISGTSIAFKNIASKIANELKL

STK33 (human) = STK33 (human) (UniProt Q9BYT3)
CDK9 CCNT1 (human) = CDK9 CCNT1 (human) (UniProt P50750+O60563)
STK24 (human) = STK24 (human) (UniProt Q9Y6E0)
PTK6 (human) = PTK6 (human) (UniProt Q13882)
Chain of PTK6 (human) (Q13882 whole entry, looked up): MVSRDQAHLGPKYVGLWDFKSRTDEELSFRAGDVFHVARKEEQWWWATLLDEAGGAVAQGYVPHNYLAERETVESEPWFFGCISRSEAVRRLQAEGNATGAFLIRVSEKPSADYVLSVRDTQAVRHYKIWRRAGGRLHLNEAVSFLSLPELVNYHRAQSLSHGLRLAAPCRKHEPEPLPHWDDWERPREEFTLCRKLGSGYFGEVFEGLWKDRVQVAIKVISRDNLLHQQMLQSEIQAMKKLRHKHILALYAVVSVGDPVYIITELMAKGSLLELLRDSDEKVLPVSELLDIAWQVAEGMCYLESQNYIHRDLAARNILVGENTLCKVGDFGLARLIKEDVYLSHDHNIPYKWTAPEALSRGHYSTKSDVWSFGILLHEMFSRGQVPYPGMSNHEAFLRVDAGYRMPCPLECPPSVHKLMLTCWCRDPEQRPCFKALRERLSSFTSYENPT

CSNK1G2 (human) = CSNK1G2 (human) (UniProt P78368)
EIF2AK3 (human) = EIF2AK3 (human) (UniProt Q9NZJ5)
Chain of EIF2AK3 (human) (Q9NZJ5 whole entry, looked up): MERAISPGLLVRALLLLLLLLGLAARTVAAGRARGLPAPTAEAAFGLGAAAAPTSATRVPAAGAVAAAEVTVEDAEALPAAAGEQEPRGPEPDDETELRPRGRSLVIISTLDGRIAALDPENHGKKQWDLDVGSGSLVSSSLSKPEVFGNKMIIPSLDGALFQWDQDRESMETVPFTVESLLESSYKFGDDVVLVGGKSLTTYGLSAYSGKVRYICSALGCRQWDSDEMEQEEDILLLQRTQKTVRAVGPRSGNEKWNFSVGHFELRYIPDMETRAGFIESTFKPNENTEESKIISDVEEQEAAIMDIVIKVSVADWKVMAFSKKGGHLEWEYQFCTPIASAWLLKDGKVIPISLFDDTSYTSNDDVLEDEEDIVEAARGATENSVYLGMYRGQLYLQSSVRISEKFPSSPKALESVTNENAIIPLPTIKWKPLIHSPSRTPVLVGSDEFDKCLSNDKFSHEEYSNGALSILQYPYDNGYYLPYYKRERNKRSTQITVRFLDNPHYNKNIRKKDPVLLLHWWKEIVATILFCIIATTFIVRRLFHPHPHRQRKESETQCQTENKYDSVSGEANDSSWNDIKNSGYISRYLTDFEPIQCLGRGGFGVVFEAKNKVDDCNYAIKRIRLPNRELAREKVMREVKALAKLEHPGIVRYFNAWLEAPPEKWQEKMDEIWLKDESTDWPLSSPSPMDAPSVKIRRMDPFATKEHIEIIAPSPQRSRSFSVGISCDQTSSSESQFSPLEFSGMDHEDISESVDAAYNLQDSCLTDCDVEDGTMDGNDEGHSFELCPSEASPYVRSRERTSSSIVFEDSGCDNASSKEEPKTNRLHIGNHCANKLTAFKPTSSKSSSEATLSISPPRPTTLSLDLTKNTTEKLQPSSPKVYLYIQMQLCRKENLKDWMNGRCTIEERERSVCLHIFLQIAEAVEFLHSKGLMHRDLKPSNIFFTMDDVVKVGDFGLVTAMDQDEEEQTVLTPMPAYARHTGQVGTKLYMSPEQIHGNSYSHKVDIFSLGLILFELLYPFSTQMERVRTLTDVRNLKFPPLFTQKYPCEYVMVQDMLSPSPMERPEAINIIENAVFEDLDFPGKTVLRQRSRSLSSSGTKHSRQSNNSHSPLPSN

PRKCG (human) = PRKCG (human) (UniProt P05129)
STK16 (human) = STK16 (human) (UniProt O75716)
Chain of STK16 (human) (O75716 whole entry, looked up): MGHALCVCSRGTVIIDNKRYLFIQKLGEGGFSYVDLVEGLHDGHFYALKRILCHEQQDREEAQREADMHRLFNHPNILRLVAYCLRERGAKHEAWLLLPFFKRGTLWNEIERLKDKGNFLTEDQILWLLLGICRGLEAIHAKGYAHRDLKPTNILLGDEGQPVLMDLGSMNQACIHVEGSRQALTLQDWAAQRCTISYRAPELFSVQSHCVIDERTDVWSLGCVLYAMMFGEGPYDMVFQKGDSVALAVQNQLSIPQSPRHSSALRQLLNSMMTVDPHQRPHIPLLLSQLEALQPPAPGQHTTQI

ZAP70 (human) = ZAP70 (human) (UniProt P43403)
ABL1 (human) = ABL1 (human) (UniProt P00519)

Chain of WNK1 (human) (Q9H4A3 whole entry, looked up): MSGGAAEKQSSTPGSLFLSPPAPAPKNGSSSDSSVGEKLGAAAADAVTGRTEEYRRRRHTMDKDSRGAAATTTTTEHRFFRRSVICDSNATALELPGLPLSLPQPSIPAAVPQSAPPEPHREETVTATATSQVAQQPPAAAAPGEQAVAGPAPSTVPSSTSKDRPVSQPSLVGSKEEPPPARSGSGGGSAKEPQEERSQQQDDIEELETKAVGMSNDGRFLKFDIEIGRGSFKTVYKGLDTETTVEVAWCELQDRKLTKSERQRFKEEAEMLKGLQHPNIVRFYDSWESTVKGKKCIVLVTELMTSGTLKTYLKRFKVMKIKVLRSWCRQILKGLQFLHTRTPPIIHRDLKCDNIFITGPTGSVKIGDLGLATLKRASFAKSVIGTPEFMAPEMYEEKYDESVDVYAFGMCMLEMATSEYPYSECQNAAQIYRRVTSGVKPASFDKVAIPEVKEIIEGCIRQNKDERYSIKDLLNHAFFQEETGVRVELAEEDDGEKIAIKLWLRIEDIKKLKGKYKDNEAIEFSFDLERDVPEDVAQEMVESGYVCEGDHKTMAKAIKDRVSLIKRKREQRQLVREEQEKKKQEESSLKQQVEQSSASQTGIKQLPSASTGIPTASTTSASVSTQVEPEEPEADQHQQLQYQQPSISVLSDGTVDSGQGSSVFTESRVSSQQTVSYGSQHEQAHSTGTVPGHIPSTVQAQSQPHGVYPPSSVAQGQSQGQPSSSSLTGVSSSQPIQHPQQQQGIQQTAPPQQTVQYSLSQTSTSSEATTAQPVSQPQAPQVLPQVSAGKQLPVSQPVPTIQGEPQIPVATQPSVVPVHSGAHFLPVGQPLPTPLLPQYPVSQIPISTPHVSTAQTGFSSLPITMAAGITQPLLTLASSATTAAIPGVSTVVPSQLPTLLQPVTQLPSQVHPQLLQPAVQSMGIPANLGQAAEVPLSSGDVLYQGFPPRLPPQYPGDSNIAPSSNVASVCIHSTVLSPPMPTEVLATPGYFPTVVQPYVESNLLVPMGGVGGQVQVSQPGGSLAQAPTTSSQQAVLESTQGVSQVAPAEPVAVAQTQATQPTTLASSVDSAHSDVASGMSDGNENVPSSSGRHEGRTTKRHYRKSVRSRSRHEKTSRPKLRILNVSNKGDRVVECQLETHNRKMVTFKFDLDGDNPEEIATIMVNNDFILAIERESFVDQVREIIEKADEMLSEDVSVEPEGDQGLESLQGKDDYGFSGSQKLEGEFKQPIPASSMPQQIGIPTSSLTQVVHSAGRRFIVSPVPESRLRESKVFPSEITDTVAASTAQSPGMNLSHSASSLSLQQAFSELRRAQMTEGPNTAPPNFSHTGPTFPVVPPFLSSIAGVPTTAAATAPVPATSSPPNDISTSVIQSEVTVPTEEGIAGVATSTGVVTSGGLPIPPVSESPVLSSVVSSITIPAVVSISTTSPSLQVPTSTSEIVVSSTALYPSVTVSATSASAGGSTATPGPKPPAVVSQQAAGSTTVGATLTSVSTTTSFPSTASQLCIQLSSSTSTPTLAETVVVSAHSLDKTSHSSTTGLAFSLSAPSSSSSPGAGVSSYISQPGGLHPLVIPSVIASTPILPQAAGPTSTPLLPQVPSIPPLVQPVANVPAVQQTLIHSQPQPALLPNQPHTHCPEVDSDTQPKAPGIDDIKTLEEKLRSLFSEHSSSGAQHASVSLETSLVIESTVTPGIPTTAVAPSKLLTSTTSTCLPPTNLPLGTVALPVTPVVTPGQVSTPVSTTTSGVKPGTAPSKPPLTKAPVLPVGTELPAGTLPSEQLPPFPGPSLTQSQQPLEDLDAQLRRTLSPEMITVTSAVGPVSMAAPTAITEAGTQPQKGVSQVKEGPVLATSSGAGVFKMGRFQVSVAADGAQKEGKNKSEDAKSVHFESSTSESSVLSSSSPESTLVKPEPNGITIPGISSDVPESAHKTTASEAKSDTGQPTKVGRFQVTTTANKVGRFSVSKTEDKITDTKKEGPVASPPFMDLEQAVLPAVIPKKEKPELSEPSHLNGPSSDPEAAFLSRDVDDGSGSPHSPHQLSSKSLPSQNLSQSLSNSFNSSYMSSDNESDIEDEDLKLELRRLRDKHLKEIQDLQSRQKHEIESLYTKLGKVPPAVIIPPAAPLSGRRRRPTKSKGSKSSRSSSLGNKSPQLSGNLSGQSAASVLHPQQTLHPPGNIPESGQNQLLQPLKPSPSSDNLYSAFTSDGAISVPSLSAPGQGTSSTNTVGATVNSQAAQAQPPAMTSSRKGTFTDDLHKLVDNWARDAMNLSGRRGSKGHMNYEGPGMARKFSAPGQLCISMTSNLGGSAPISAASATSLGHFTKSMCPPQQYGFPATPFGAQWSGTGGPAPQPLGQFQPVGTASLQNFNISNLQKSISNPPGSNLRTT

A residual activity (DDR2 (human); compound 0.01 µM) of 17%, a residual activity (DDR2 (human); compound 0.1 µM) of 8% and a residual activity (DDR2 (human); compound 1.0 µM) of 6% were found for `COc1ccc(N(C(=O)Nc2c(C)cccc2C)c2cc(Nc3ccc(N4CCN(C)CC4)cc3)ncn2)c(OC)c1` in this work. For the same molecule, the residual activity (CHEK2 (human); compound 0.01 µM) was 89%, the residual activity (CHEK2 (human); compound 0.1 µM) was 75% and the residual activity (CHEK2 (human); compound 1.0 µM) was 34%. It also gave a residual activity ([1]; compound 0.01 µM) of 101%, a residual activity ([1]; compound 0.1 µM) of 93% and a residual activity ([1]; compound 1.0 µM) of 57%. For the same molecule, the residual activity (TSSK1B (human); compound 0.01 µM) was 108%, the residual activity (TSSK1B (human); compound 0.1 µM) was 102% and the residual activity (TSSK1B (human); compound 1.0 µM) was 62%. It also gave a residual activity (TESK1 (human); compound 0.01 µM) of 82%, a residual activity (TESK1 (human); compound 0.1 µM) of 29% and a residual activity (TESK1 (human); compound 1.0 µM) of 16%. For the same molecule, the residual activity (WNK1 (human); compound 0.01 µM) was 100%, the residual activity (WNK1 (human); compound 0.1 µM) was 107% and the residual activity (WNK1 (human); compound 1.0 µM) was 102%. For the same molecule, the residual activity (TLK1 (human); compound 0.01 µM) was 98%, the residual activity (TLK1 (human); compound 0.1 µM) was 93% and the residual activity (TLK1 (human); compound 1.0 µM) was 93%. It also gave a residual activity (TTBK1 (human); compound 0.01 µM) of 100%, a residual activity (TTBK1 (human); compound 0.1 µM) of 117% and a residual activity (TTBK1 (human); compound 1.0 µM) of 112%. For the same molecule, the residual activity (IRAK1 (human); compound 0.01 µM) was 98%, the residual activity (IRAK1 (human); compound 0.1 µM) was 95% and the residual activity (IRAK1 (human); compound 1.0 µM) was 95%. It also gave a residual activity (TEK (human); compound 0.01 µM) of 116%, a residual activity (TEK (human); compound 0.1 µM) of 82% and a residual activity (TEK (human); compound 1.0 µM) of 42%. For the same molecule, the residual activity (MARK3 (human); compound 0.01 µM) was 92%, the residual activity (MARK3 (human); compound 0.1 µM) was 73% and the residual activity (MARK3 (human); compound 1.0 µM) was 28%. It also gave a residual activity (STK33 (human); compound 0.01 µM) of 113%, a residual activity (STK33 (human); compound 0.1 µM) of 106% and a residual activity (STK33 (human); compound 1.0 µM) of 107%. The residual activity (CDK9 CCNT1 (human); compound 0.01 µM) was 104%, the residual activity (CDK9 CCNT1 (human); compound 0.1 µM) was 87% and the residual activity (CDK9 CCNT1 (human); compound 1.0 µM) was 95%. For the same molecule, the residual activity (STK24 (human); compound 0.01 µM) was 105%, the residual activity (STK24 (human); compound 1.0 µM) was 40% and the residual activity (PTK6 (human); compound 0.01 µM) was 97%. The residual activity (PTK6 (human); compound 0.1 µM) was 24%, the residual activity (PTK6 (human); compound 1.0 µM) was 3% and the residual activity (CSNK1G2 (human); compound 0.01 µM) was 96%. It also gave a residual activity (CSNK1G2 (human); compound 0.1 µM) of 93%, a residual activity (EIF2AK3 (human); compound 0.01 µM) of 91% and a residual activity (EIF2AK3 (human); compound 0.1 µM) of 97%. It also gave a residual activity (EIF2AK3 (human); compound 1.0 µM) of 95%, a residual activity (PRKCG (human); compound 0.01 µM) of 101% and a residual activity (PRKCG (human); compound 0.1 µM) of 104%. For the same molecule, the residual activity (PRKCG (human); compound 1.0 µM) was 96%, the residual activity (STK16 (human); compound 0.01 µM) was 106% and the residual activity (STK16 (human); compound 0.1 µM) was 106%. The residual activity (STK16 (human); compound 1.0 µM) was 106%, the residual activity (ZAP70 (human); compound 0.01 µM) was 96% and the residual activity (ZAP70 (human); compound 0.1 µM) was 98%. For the same molecule, the residual activity (ZAP70 (human); compound 1.0 µM) was 94%.

A residual activity (CHEK2 (human); compound 0.1 µM) of 102%, a residual activity (CHEK2 (human); compound 1.0 µM) of 106% and a residual activity (CHEK2 (human); compound 10.0 µM) of 88% were found for `NC(=O)c1cc(-c2ccnc(NC3CCCCC3)c2)nc(N2CCNCC2)c1` in this work. The residual activity ([1]; compound 0.1 µM) was 98%, the residual activity ([1]; compound 1.0 µM) was 104% and the residual activity ([1]; compound 10.0 µM) was 73%. For the same molecule, the residual activity (TSSK1B (human); compound 0.1 µM) was 84%, the residual activity (TSSK1B (human); compound 1.0 µM) was 56% and the residual activity (TSSK1B (human); compound 10.0 µM) was 12%. It also gave a residual activity (TESK1 (human); compound 0.1 µM) of 99%, a residual activity (TESK1 (human); compound 1.0 µM) of 102% and a residual activity (TESK1 (human); compound 10.0 µM) of 93%. The residual activity (TLK1 (human); compound 0.1 µM) was 91%, the residual activity (TLK1 (human); compound 1.0 µM) was 107% and the residual activity (TLK1 (human); compound 10.0 µM) was 90%. The residual activity (TTBK1 (human); compound 0.1 µM) was 93%, the residual activity (TTBK1 (human); compound 10.0 µM) was 93% and the residual activity (IRAK1 (human); compound 0.1 µM) was 92%. For the same molecule, the residual activity (IRAK1 (human); compound 10.0 µM) was 87%, the residual activity (TEK (human); compound 0.1 µM) was 101% and the residual activity (TEK (human); compound 1.0 µM) was 111%. It also gave a residual activity (TEK (human); compound 10.0 µM) of 84%, a residual activity (MARK3 (human); compound 0.1 µM) of 92% and a residual activity (MARK3 (human); compound 1.0 µM) of 40%. For the same molecule, the residual activity (MARK3 (human); compound 10.0 µM) was 15%, the residual activity (STK33 (human); compound 0.1 µM) was 103% and the residual activity (STK33 (human); compound 10.0 µM) was 66%. The residual activity (PTK6 (human); compound 0.1 µM) was 114%, the residual activity (PTK6 (human); compound 1.0 µM) was 124% and the residual activity (PTK6 (human); compound 10.0 µM) was 103%. The residual activity (EIF2AK3 (human); compound 0.1 µM) was 108%, the residual activity (EIF2AK3 (human); compound 1.0 µM) was 101% and the residual activity (EIF2AK3 (human); compound 10.0 µM) was 97%. The residual activity (ABL1 (human); compound 0.1 µM) was 102%, the residual activity (ABL1 (human); compound 1.0 µM) was 112% and the residual activity (ABL1 (human); compound 10.0 µM) was 100%. For the same molecule, the residual activity (PRKCG (human); compound 0.1 µM) was 106%, the residual activity (PRKCG (human); compound 1.0 µM) was 103% and the residual activity (PRKCG (human); compound 10.0 µM) was 115%. For the same molecule, the residual activity (STK16 (human); compound 0.1 µM) was 100%, the residual activity (STK16 (human); compound 1.0 µM) was 93% and the residual activity (STK16 (human); compound 10.0 µM) was 84%. It also gave a residual activity (ZAP70 (human); compound 0.1 µM) of 108%, a residual activity (ZAP70 (human); compound 1.0 µM) of 114% and a residual activity (ZAP70 (human); compound 10.0 µM) of 109%.
